{"source": "patent US11944682B2", "about": "“Aggregation induced emission-bacteriophage bioconjugates” (priority 2020, dated 2024)", "origin": "cited, not measured here", "details": "used as standard", "data": [{"smiles": "O=C1OC2(c3cc(I)c(O)c(I)c3Oc3c2cc(I)c(O)c3I)c2c(Cl)c(Cl)c(Cl)c(Cl)c21", "note": "[Rose Bengal, Rose Bengal lactone]", "values": [{"measurement": "quantum yield for 1O2 (standard)", "value": "~75", "unit": "%"}]}]}
